# Laboratory results: paper PMC9917214, “Assessment of the Permeability of 3,4-Methylenedioxypyrovalerone (MDPV) across the Caco-2 Monolayer for Estimation of Intestinal Absorption and Enantioselectivity” (International Journal of Molecular Sciences, 2023)
# Key:
# [1] = Sample stability in HBSS (+/+) after 6 weeks of storage (UHPLC-UV peak area); assay type: physicochemical
# Description: To evaluate stability, three different calibrators within the linear concentration range (10 (low), 100 (medium), and 500 (high) μM) were prepared and injected into the UHPLC. The remaining volume of each calibrator was divided into several vials and further stored at different temperatures (room temperature, 4 °C, −20 °C, and −80 °C) for 6 weeks (the same storage time of the samples obtained from the permeability assay with Caco-2 cells). After the storage period, samples were injected in duplicate and the obtained analyte peak area for each calibrator in each temperature was compared with the peak area obtained on day 0. Percentages of peak variation were calculated for each concentration.
# [2] = system: Caco-2 cells; assay: Cell viability assay (Neutral Red) in Caco-2 cells; assay type: cell-based, human; conditions: 24 h, NR assay
# Description: MDPV cytotoxicity for the Caco-2 cell line was evaluated through the NR assay as previously described. This method provides an indication of the ability of lysosomes from viable cells to incorporate the NR dye. Caco-2 cells were seeded onto 96-well plates using a density of 60,000 cells/cm^2 to obtain confluent monolayers at the experimental day. The cells were incubated with the racemate of MDPV (0, 50, 150, 300, 500, 750, 1000, 1250, and 1500 µM) in fresh cell culture medium for 24 h. After the selected time interval, the cell culture medium was removed and replaced by a 50 µg/mL NR solution in HBSS (+/+) for 90 min, after which the NR solution was discarded, a lysis solution (50% EtOH/1% glacial acetic acid solution) was added, and the absorbance was read at 540 nm in a 96-well plate reader (PowerWaveX; Bio-Tek, Winooski, VT, USA). Additionally, 1% Triton X-100 was used as the positive control. Data were expressed as the percentage of cell viability relative to untreated cells. Data were obtained from four independent experiments performed in triplicate.
# [3] = system: Caco-2 model; parameters: method as in PMID 32234388; conditions: cited from earlier work
# [4] = system: Caco-2 monolayer; assay: Permeability assay across the Caco-2 monolayer; assay type: in vitro ADME, human; conditions: mean ± SD; for Mass Balance (%): 300 µM in HBSS (+/+), 300 min
# Description: For the in vitro permeability assay, Caco-2 cells were seeded on polycarbonate transwell inserts (12-well, 0.4 μm pores, Corning) using a density of 120,000 cells/cm^2 and cultivated for twenty-one days to allow the development of a differentiated monolayer. TEER was measured to control the integrity of the monolayers for twenty-one days.
# After twenty-one days, the cells were incubated with 300 µM of each enantiomer of MDPV (in HBSS (+/+)). The assay was performed for both AP to BL and BL to AP directions. For AP to BL, exposure to the enantiomers was performed in the AP compartment (450 µL) while for BL to AP, exposure was made in the BL compartment (1250 µL). Right after the exposure (time 0), 50 µL was collected from each donor compartment (where exposure was performed). At suitable time intervals (40, 60, 90, 120, 180, 240, and 300 min), 600 µL (for AP to BL) and 200 µL (for BL to AL) of samples was collected from the BL and AP compartments (receiver compartments), respectively, and the same amount of HBSS (+/+) was added. In the last time point (300 min), 50 µL was also collected from the donor compartment. Collected samples were stored at −80 °C until the day of the UHPLC analysis. After 6 weeks of storage, samples were filtered with a 13 mm nylon syringe filter with […] pore size from Olimpeak™ and quantification was performed by the validated UHPLC-UV method. Results were obtained for three experiments, performed in duplicate.
# Mass balance was calculated using the following equation [31]:(5) % Mass balance=100×QR,T+QD,f/QD,0 where QR,T is the total cumulative quantity in the receiver chamber (nmol), QD,f is the final quantity in the donor chamber (nmol), and QD,0 is the initial quantity in the donor chamber (nmol).
# To calculate Papp, first, a determination had to be made to determine whether the results were under sink or non-sink conditions. […] If the ratio is higher, Papp has to be calculated considering a non-sink analysis.
# For sink conditions, Papp was calculated in cm/s using the following equation [24]:(6) Papp=ΔQ/Δt×1/A×C0 where ΔQ/Δt is the amount of compound over time (mol/s), A is the surface area of the monolayer (cm^2), and C0 is the initial drug concentration on the donor side (mol/mL).
# For non-sink conditions, a continuous change of the donor and receiver concentrations is considered, and the following equation must be used for each time interval to calculate the theoretical concentration at the receiver side:(7) CR(t)=(Qtot/VD+VR)+(CR(t−1)×f−Qtot/VD+VR)×e^−P×A×(1/VR+1/VD)×Δt where CR(t) is the theoretical concentration in the receiver side at time t (µM), Qtot is the total amount of drug in both chambers at time t (nmol), VR and VD are the volumes in the receiver and donor compartments (mL), respectively, CR(t-1) is the concentration in the receiver chamber at the previous time (µM), f is the dilution factor for the sample replacement, A is the surface area of the monolayer (cm^2), Δt is the time interval (s), and P is an initial approximation of the permeability coefficient calculated through Equation (6) (cm/s).
# Papp values are determined by the minimization of the Sum of Squared Residuals (SSR):(8) SSR=∑[CR(t)theor−CR(t)exp]^2 where CR(t)theor is the theoretical concentration in the receiver side at time t calculated through Equation (7) and CR(t)exp is the experimental concentration in the receiver side at time t obtained directly from the quantification of the samples. […]
# [5] = system: Caco-2 cells; conditions: racemates; cited from earlier work
smiles,measurement,setting,value
"CCCC(C(=O)c1ccc2c(c1)OCO2)N1CCCC1 (centres unmarked) [MDPV, 3,4-Methylenedioxypyrovalerone]",% peak area variation relative to day 0,"[1]; 10 µM in HBSS (+/+), 6 weeks of storage at 4 °C",10.9%
same,% peak area variation relative to day 0,"[1]; 10 µM in HBSS (+/+), 6 weeks of storage at RT",11.0%
same,% peak area variation relative to day 0,"[1]; 10 µM in HBSS (+/+), 6 weeks of storage at −20 °C",12.5%
same,% peak area variation relative to day 0,"[1]; 10 µM in HBSS (+/+), 6 weeks of storage at −80 °C",7.1%
same,% peak area variation relative to day 0,"[1]; 100 µM in HBSS (+/+), 6 weeks of storage at 4 °C",9.1%
same,% peak area variation relative to day 0,"[1]; 100 µM in HBSS (+/+), 6 weeks of storage at RT",11.9%
same,% peak area variation relative to day 0,"[1]; 100 µM in HBSS (+/+), 6 weeks of storage at −20 °C",10.4%
same,% peak area variation relative to day 0,"[1]; 100 µM in HBSS (+/+), 6 weeks of storage at −80 °C",8.6%
same,% peak area variation relative to day 0,"[1]; 500 µM in HBSS (+/+), 6 weeks of storage at 4 °C",3.4%
same,% peak area variation relative to day 0,"[1]; 500 µM in HBSS (+/+), 6 weeks of storage at RT",10.2%
same,% peak area variation relative to day 0,"[1]; 500 µM in HBSS (+/+), 6 weeks of storage at −20 °C",5.3%
same,% peak area variation relative to day 0,"[1]; 500 µM in HBSS (+/+), 6 weeks of storage at −80 °C",6.8%
same,Concentration from which a significant decrease in cell viability was observed,[2],≥ 1000 µM
same,Concentration with no statistically significant differences in cell viability,[2]; tested up to 1500 µM,≤ 750 µM
CCC[C@@H](NC)C(=O)c1ccccc1 [R-(-)-pentedrone],Enantioselectivity in permeability (more permeable enantiomer),[3],most permeable
CCC[C@@H](C(=O)c1ccc2c(c1)OCO2)N1CCCC1 [S-(-)-MDPV],Mass Balance (%),[4]; AP → BL direction,100 ± 2%
same,Papp,"[4]; AP → BL direction, sink conditions (Equation 6), 300 µM",1.8e-05 ± 1e-06 cm/s
same,Mass Balance (%),[4]; BL → AP direction,101 ± 4%
same,Papp,"[4]; BL → AP direction, non-sink conditions (Equation 7), 300 µM",3.4 × 10^−5 ± 1 × 10^−6 ****^; # cm/s
same,Efflux Ratio,"[4]; Papp (BL→AP)/Papp (AP→BL), 300 µM",1.8 ± 0.2
CN[C@@H](C)C(=O)c1ccc2c(c1)OCO2 [S-(-)-methylone],Enantioselectivity in permeability (more permeable enantiomer),[3],most permeable
CNC(C)C(=O)c1ccc2c(c1)OCO2 (centres unmarked) [methylone],Concentration range with no cytotoxic effects,[5],up to 2000 μM
CCCC(NC)C(=O)c1ccccc1 (centres unmarked) [pentedrone],Concentration range with no cytotoxic effects,[5],up to 2000 μM
